Measurements reported in US20190055563A1, “POLYMERASE Q AS A TARGET IN HR-DEFICIENT CANCERS” (DANA-FARBER CANCER INSTITUTE, INC., priority 2015, published 2019).

Legend:
A2780-shFANCD2 cells = experiment: Clonogenic survival of HR-deficient cells with POLQ depletion; format: cell-based, human; details: A2780-shFANCD2 with shRNA targeting POLQ
Procedure: (§1) For assessing cellular cytotoxicity, cells were seeded into 96-well plates at a density of 1000 cells/well. Cytotoxic drugs were serially diluted in media and added to the wells. At 72 hours, CellTiter-Glo reagent (Promega) was added to the wells and the plates were scanned using a luminescence microplate reader. Survival at each drug concentration was plotted as a percentage of the survival in drug-free media. Each data point on the graph represents the average of three measurements, and the error bars represent the standard deviation. For clonogenic survival, 1000 cells/well were seeded into six-well plates and treated with cytotoxic drugs the next day. For MMC and PARPi, cells were treated continuously with indicated drug concentrations. For CDDP, cells were treated for 24 hours and cultured for 14 days in drug-free media. Colony formation was scored 14 days after treatment using 0.5% (w/v) crystal violet in methanol. Survival curves were expressed as a percentage ±s.e.m. over three independent experiments of colonies formed relative to the DMSO-treated control.

A2780 cells = experiment: 3-day survival assay with POLQ inhibition; format: cell-based, human; details: 3 days of continuous exposure to ATM inhibitor
Procedure: as §1

293T cells = experiment: 3-day survival assay with POLQ siRNA; format: cell-based, human
Procedure: as §1

[1] = target: recombinant human GST-RAD51 (UniProt Q06609)
[2] = target: T1, Flag-tagged POLQ-1633-Cter (human, UniProt O75417 1633-2590); experiment: anti-Flag co-immunoprecipitation from HeLa cells, immunoblot
T1 construct: range 1633-Cter; Stably expressed in HeLa cells; not shown: Flag tag
T1 sequence (looked up): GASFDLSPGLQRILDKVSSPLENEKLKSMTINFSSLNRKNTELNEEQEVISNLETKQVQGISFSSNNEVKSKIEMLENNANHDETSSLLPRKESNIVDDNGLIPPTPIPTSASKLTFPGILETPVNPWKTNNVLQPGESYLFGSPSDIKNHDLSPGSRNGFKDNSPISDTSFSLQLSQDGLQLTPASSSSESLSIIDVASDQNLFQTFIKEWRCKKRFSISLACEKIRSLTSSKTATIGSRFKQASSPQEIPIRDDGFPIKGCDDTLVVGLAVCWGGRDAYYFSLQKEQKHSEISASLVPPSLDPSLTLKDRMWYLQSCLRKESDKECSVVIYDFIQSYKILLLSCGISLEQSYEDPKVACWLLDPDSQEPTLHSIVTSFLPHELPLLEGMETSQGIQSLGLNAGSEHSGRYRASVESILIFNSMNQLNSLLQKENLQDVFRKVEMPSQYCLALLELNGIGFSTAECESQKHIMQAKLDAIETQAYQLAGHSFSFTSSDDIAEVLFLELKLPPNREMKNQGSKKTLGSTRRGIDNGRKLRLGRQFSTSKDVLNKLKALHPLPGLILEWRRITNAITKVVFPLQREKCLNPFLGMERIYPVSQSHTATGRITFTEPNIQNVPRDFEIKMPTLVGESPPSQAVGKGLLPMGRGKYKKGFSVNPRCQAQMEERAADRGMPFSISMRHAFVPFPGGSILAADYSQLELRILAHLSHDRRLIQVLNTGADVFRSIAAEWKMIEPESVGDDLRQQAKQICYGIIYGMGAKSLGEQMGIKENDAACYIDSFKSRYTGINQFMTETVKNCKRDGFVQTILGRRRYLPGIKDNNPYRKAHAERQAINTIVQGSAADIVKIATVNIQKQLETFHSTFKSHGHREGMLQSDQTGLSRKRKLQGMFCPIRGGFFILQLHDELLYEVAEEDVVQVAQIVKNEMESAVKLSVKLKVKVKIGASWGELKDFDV

N.N.[Cl][Pt][Cl] [CDDP, cis-diamminedichloroplatinum(II)]
survival of HR-deficient cells exposed to drug, effect of POLQ depletion (A2780-shFANCD2 cells): reduced the survival

O=c1cc(-c2cccc3c2Sc2ccccc2S3)oc(N2CCOCC2)c1 [Ku55933]
survival of A2780 cells, effect of POLQ inhibition (A2780 cells): reduces the survival

CO[C@@]12[C@H](COC(N)=O)C3=C(C(=O)C(C)=C(N)C3=O)N1C[C@@H]1N[C@@H]12 [MMC, Mitomycin C]
survival of HR-deficient cells exposed to drug, effect of POLQ depletion (A2780-shFANCD2 cells): reduced the survival
cellular sensitivity to drug after depletion of POLQ (293T cells): hypersensitivity

purified recombinant POLQ fragment ΔPol2 (amino acids 1 to 1000), wild-type
RAD51-ssDNA nucleofilament assembly [1]: RAD51-ssDNA assembly was reduced by wild-type ΔPol2

B1: endogenous RAD51 (other, UniProt Q06609 2-339, looked up)
chain: AMQMQLEANADTSVEEESFGPQPISRLEQCGINANDVKKLEEAGFHTVEAVAYAPKKELINIKGISEAKADKILAEAAKLVPMGFTTATEFHQRRSEIIQITTGSKELDKLLQGGIETGSITEMFGEFRTGKTQICHTLAVTCQLPIDRGGGEGKAMYIDTEGTFRPERLLAVAERYGLSGSDVLDNVAYARAFNTDHQTQLLYQASAMMVESRYALLIVDSATALYRTDYSGRGELSARQMHLARFLRMLLRLADEFGVAVVITNQVVAQVDGAAMFAADPKKPIGGNIIAHASTTRLYLRKGRGETRICKIYDSPCLPEAEAMFAINADGVGDAKD
notes: Endogenous protein in cell lysates
binding result [2]: no binding
